According to ChEMBL document CHEMBL5226283, “Reactive Oxygen Species (ROS)-Responsive Prodrugs, Probes, and Theranostic Prodrugs: Applications in the ROS-Related Diseases” (J Med Chem, 2021):

Key:
HeLa [1] = assay: Antiproliferative activity against human HeLa cells assessed as cell growth inhibition at 12.5 uM relative to control; assay type: functional; parameters: scale not given: the % may be the effect or the level left
DNA [2] = assay: Induction of ROS-mediated DNA (unknown origin) assessed as efficiency of ICL formation preincubated with compounds followed by H2O2 addition relative to control; assay type: functional
CAKI-1 [3] = assay: Antiproliferative activity against human CAKI-1 cells assessed as cell growth inhibition at 10 uM by SRB assay; assay type: functional; parameters: scale not given: the % may be the effect or the level left
SR [4] = assay: Antiproliferative activity against human SR cells assessed as cell growth inhibition at 10 uM by SRB assay; assay type: functional; parameters: scale not given: the % may be the effect or the level left
SN12C = assay: Antiproliferative activity against human SN12C cells assessed as cell growth inhibition at 10 uM by SRB assay; assay type: functional; parameters: scale not given: the % may be the effect or the level left
DNA [5] = assay: Induction of ROS-mediated DNA (unknown origin) ICL formation by measuring rate constant preincubated with compounds followed by H2O2 addition; assay type: functional
NCI-H460 [6] = assay: Antiproliferative activity against human NCI-H460 cells assessed as cell growth inhibition at 10 uM by SRB assay; assay type: functional; parameters: scale not given: the % may be the effect or the level left
MIA PaCa-2 = assay: Antiproliferative activity against human MIA PaCa-2 cells assessed as cell growth inhibition; assay type: functional, cell-based
MOLT-4 = assay: Antiproliferative activity against human MOLT-4 cells assessed as cell growth inhibition; assay type: functional
SF-268 = assay: Antiproliferative activity against human SF-268 cells assessed as cell growth inhibition; assay type: functional
LOX IMVI = assay: Antiproliferative activity against human LOX IMVI cells assessed as cell growth inhibition; assay type: functional
HL-60(TB) = assay: Antiproliferative activity against human HL-60(TB) cells assessed as cell growth inhibition; assay type: functional
UACC-62 = assay: Antiproliferative activity against human UACC-62 cells assessed as cell growth inhibition; assay type: functional
SNB-75 = assay: Antiproliferative activity against human SNB-75 cells assessed as cell growth inhibition; assay type: functional
UO-31 = assay: Antiproliferative activity against human UO-31 cells assessed as cell growth inhibition; assay type: functional
MCF7 = assay: Antiproliferative activity against human MCF7 cells assessed as cell growth inhibition; assay type: functional
HOP-92 = assay: Antiproliferative activity against human HOP-92 cells assessed as cell growth inhibition; assay type: functional
RXF 393 = assay: Antiproliferative activity against human RXF 393 cells assessed as cell growth inhibition; assay type: functional
NCI-H460 [7] = assay: Antiproliferative activity against human NCI-H460 cells assessed as cell growth inhibition; assay type: functional
CAKI-1 [8] = assay: Antiproliferative activity against human CAKI-1 cells assessed as cell growth inhibition; assay type: functional
DU-145 = assay: Antiproliferative activity against human DU-145 cells assessed as cell growth inhibition; assay type: functional
786-0 = assay: Antiproliferative activity against human 786-0 cells assessed as cell growth inhibition; assay type: functional
MDA-MB-468 = assay: Antiproliferative activity against human MDA-MB-468 cells assessed as cell growth inhibition; assay type: functional
NCI-H23 = assay: Antiproliferative activity against human NCI-H23 cells assessed as cell growth inhibition; assay type: functional
CCRF-CEM = assay: Antiproliferative activity against human CCRF-CEM cells assessed as cell growth inhibition; assay type: functional
SF-295 = assay: Antiproliferative activity against human SF-295 cells assessed as cell growth inhibition; assay type: functional
UACC-257 = assay: Antiproliferative activity against human UACC-257 cells assessed as cell growth inhibition; assay type: functional
SR [9] = assay: Antiproliferative activity against human SR cells assessed as cell growth inhibition; assay type: functional
A549 [10] = assay: Antiproliferative activity against human A549 cells assessed as cell growth inhibition; assay type: functional, cell-based
ACHN = assay: Antiproliferative activity against human ACHN cells assessed as cell growth inhibition; assay type: functional
SF-539 = assay: Antiproliferative activity against human SF-539 cells assessed as cell growth inhibition; assay type: functional
NCI-H522 = assay: Antiproliferative activity against human NCI-H522 cells assessed as cell growth inhibition; assay type: functional
M14 = assay: Antiproliferative activity against human M14 cells assessed as cell growth inhibition; assay type: functional
[11] = target: Matrix metalloproteinase-9 (Homo sapiens, UniProt P14780); assay: Inhibition of MMP9 (unknown origin)
4T1 = assay: Antiproliferative activity against mouse 4T1 cells assessed as cell growth inhibition; assay type: functional, cell-based
[12] = Oral bioavailability in C57BL/6 mouse; assay type: ADME, organism-based; conditions: in vivo
[13] = Permeability of compound by PAMPA assay; assay type: ADME; conditions: read-out: permeability
[14] = Activation of Nrf2-ARE pathway in LPS-induced human HepG2-ARE-C8 cells; assay type: cell-based
Keap1/Nrf2 = Keap1/Nrf2 (Homo sapiens, UniProt Q14145+Q16236); assay: Inhibition of Keap1-Nrf2 (unknown origin); assay type: protein assay
A549 [15] = assay: Antitumor activity against human A549 tumor spheroid cells assessed as reduction in size of tumor spheroid measured after 3 days by fluorescence microscopic analysis relative to control; assay type: functional; parameters: scale not given: the % may be the effect or the level left; conditions: time 3 day
HeLa [16] = assay: Antiproliferative activity against human HeLa cells assessed as cell growth inhibition at 2 uM relative to control; assay type: functional; parameters: scale not given: the % may be the effect or the level left
[17] = Cytotoxicity against human HEK293T cells assessed as cell growth inhibition
WI-38 = assay: Cytotoxicity against human WI-38 cells assessed as cell growth inhibition at 5 uM relative to control; assay type: functional; parameters: scale not given: the % may be the effect or the level left
KB = assay: Antiproliferative activity against human KB cells assessed as cell growth inhibition at 5 uM relative to control; assay type: functional; parameters: scale not given: the % may be the effect or the level left

Sequence of Matrix metalloproteinase-9 (P14780 whole entry): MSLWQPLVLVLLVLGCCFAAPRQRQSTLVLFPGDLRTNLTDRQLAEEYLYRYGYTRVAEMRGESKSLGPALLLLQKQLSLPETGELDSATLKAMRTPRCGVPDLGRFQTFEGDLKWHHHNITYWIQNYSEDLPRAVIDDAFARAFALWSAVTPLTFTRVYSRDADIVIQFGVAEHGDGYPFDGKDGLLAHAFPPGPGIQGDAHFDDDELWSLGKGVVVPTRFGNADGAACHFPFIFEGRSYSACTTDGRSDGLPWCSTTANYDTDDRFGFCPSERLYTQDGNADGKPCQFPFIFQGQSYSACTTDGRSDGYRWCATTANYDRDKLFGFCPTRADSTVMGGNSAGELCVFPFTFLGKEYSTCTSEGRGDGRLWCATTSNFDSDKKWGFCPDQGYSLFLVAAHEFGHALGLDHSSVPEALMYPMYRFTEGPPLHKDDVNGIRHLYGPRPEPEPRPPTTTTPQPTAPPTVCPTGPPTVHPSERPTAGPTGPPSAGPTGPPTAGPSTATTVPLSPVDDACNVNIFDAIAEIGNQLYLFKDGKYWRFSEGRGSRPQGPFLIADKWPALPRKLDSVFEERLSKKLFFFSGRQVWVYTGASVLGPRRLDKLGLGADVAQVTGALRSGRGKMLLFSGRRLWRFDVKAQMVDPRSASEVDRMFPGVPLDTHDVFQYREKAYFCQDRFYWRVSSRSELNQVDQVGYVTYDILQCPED
Sequence of Keap1/Nrf2 (Q16236 whole entry): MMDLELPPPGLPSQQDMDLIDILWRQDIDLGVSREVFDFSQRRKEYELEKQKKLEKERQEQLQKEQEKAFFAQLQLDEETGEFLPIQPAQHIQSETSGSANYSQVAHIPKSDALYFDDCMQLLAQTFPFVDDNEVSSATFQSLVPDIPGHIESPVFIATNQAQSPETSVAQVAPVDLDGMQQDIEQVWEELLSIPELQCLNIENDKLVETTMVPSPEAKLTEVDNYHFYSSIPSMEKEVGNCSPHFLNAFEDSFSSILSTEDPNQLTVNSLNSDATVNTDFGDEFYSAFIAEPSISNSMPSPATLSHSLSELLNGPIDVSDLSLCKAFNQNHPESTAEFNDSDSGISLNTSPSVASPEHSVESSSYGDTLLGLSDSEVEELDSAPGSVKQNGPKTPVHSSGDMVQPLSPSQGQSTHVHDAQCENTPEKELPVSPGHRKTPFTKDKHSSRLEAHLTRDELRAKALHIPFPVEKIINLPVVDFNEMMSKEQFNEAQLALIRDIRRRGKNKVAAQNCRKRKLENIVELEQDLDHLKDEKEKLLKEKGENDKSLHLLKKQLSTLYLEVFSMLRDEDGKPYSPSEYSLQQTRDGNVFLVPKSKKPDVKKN
Sequence of Keap1/Nrf2 (Q14145 whole entry): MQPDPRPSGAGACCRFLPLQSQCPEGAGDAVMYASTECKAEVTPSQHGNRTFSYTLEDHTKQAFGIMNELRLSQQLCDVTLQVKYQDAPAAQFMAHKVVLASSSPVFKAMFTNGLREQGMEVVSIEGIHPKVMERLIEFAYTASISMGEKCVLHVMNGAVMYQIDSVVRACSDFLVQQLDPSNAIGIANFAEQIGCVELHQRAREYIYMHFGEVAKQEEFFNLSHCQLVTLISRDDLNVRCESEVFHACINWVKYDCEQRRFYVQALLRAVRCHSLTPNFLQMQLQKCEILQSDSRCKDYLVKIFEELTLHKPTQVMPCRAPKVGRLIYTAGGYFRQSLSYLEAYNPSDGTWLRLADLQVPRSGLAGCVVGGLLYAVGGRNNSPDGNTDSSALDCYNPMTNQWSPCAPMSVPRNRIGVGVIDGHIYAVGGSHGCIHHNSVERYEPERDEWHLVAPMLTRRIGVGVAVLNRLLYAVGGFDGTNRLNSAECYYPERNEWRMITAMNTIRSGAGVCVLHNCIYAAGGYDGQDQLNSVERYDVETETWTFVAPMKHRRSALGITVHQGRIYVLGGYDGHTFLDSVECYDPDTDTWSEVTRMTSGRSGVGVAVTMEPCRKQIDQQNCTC

SMILES: COC(=O)[C@]1([Se]c2ccccc2)C[C@]2(C)C(=O)[C@]1(C)C(c1ccccc1)=C2c1ccccc1
- Activity (HeLa [1]): <=80%

SMILES: CC1(C)OB(c2ccc(C[N+](C)(CCCl)CCCl)cc2)OC1(C)C.[Br-]
- Activity (DNA [2]): 43%
- Activity (CAKI-1 [3]): 66%
- Activity (SR [4]): 90%
- Activity (SN12C): 57%
- K (DNA [5]): 4.6 10^-5/s
- Activity (NCI-H460 [6]): 85%

SMILES: COc1cccc2c1C(=O)c1c(O)c3c(c(O)c1C2=O)C[C@@](O)(C(=O)CO)C[C@@H]3O[C@H]1C[C@H](NC(=O)OCc2ccc(B3OC(C)(C)C(C)(C)O3)cc2)[C@H](O)[C@H](C)O1
- IC50 (MIA PaCa-2): 0.3 µM

SMILES: CC1(C)OB(c2ccc(COC(=O)Nc3ccc(N(CCCl)CCCl)cc3)cc2)OC1(C)C
- GI50 (MOLT-4): < 1 µM
- GI50 (SF-268): < 1 µM
- GI50 (LOX IMVI): < 1 µM
- GI50 (HL-60(TB)): < 1 µM
- GI50 (UACC-62): < 1 µM
- GI50 (SNB-75): < 1 µM
- GI50 (UO-31): < 1 µM
- GI50 (MCF7): < 1 µM
- Activity (DNA [2]): 47%
- GI50 (HOP-92): < 1 µM
- GI50 (RXF 393): < 1 µM
- GI50 (NCI-H460 [7]): < 1 µM
- GI50 (CAKI-1 [8]): < 1 µM
- GI50 (DU-145): < 1 µM
- GI50 (786-0): < 1 µM
- GI50 (MDA-MB-468): < 1 µM
- GI50 (NCI-H23): < 1 µM
- GI50 (CCRF-CEM): < 1 µM
- GI50 (SF-295): < 1 µM
- GI50 (UACC-257): < 1 µM
- GI50 (SR [9]): < 1 µM
- GI50 (A549 [10]): < 1 µM
- GI50 (ACHN): < 1 µM
- GI50 (SF-539): < 1 µM
- GI50 (NCI-H522): < 1 µM
- GI50 (M14): < 1 µM

SMILES: CC1(C)OB(c2ccc(COc3c(C(=O)NCc4ccc(-c5ccccc5)cc4)occc3=O)cc2)OC1(C)C
- IC50 [11]: > 1000 µM

SMILES: CCCCC/C=C\C/C=C\CCCCCCCC(=O)OCCOC(=O)CSCC(=O)OC(C(=O)OC1C[C@@]2(O)[C@@H](OC(=O)c3ccccc3)[C@@H]3[C@]4(OC(C)=O)CO[C@@H]4C[C@H](O)[C@@]3(C)C(=O)[C@H](OC(C)=O)C(=C1C)C2(C)C)C(NC(=O)c1ccccc1)c1ccccc1 (stereo partly drawn)
- IC50 (4T1): 0.127 µM
- IC50 (A549 [10]): 0.176 µM

SMILES: CC1(C)OB(c2ccc(COn3c(C(=O)NCc4ccc(-c5ccccc5)cc4)cccc3=O)cc2)OC1(C)C
- bioavailability [12]: 68.1%
- Papp [13]: 6.35 ×10⁻⁶ cm/s
- EC50 [14]: 0.32 µM
- IC50 (Keap1/Nrf2): 0.0967 µM
- IC50 [11]: > 1000 µM

SMILES: O=C(CCCCCCC(=O)Nc1ccccc1)NO [VORINOSTAT]
- Activity (A549 [15]): 50%

SMILES: COc1cccc2c1C(=O)c1c(O)c3c(c(O)c1C2=O)C[C@@](O)(C(=O)CO)C[C@@H]3O[C@H]1C[C@H](N)[C@H](O)[C@H](C)O1 [DOXORUBICIN]
- Activity (HeLa [16]): 20%

SMILES: CC1(C)OB(c2ccc(COC(=O)ONC(=O)CCCCCCC(=O)Nc3ccccc3)cc2)OC1(C)C
- EC50 [17]: > 1 µM
- Activity (A549 [15]): 80%

SMILES: CCN(CC)c1ccc2c(c1)Oc1cc(OCc3ccc(B4OC(C)(C)C(C)(C)O4)cc3)c(COC(=O)OC3(CC)C(=O)OCc4c3cc3n(c4=O)Cc4cc5ccccc5nc4-3)cc1C21c2ccccc2CN1CCNC(=O)CCC(NC(=O)c1ccc(NCc2cnc3[nH]c(N)nc(=O)c3n2)cc1)C(=O)O (stereo not drawn)
- Activity (WI-38): 100%
- Activity (KB): 70%
